Results reported in US5747463A, “Malonate derivatives of glycolipids as cell adhesion inhibitors” (Bristol-Myers Squibb Company, priority 1996, dated 1998).

What was measured:
P-selectin [1] = assay: P-Selectin adhesion receptor binding: ELISA, inhibition of P-selectin binding to immobilized sulfatides (cell free); conditions: 45 minutes at 37° C., pH 8.0
Protocol: Based on the availability of soluble forms of P-selectin prepared as described by Aruffo, A. et al., Cell, 67, 35-44 (1991), a binding ELISA based assay modified from Foxall, et al., J. Cell Biol., 117, 1895-902 (1992) was developed to measure inhibitors of P-selectin binding to immobilized sulfatides. Such inhibitors were tested in the assay described below.
0.1 ml of sulfatide (SIGMA) at 1 μg/ml in MeOH was added to 48 wells of a 96-well ELISA plate (ProBind, Falcon) and allowed to dry overnight at room temperature. Another set of 48 wells were incubated with the solvent (methanol, Fisher Scientific). The next day the antigen/solvent coated plates were blocked for 1.5 hours at room temperature with 5% BSA (ICN) in buffer containing 20 mM Hepes, 1 mM CaCl2 and 0.15M NaCl, pH 8.0. […] Bound complexes were detected by addition of substrate buffer (95 mM NaOAc.3H2 O, 5 mM citric acid monohydrate, 1.4 mM urea/H2 O2) containing 3,3',5,5'-tetramethylbenzidine (SIGMA). Reactions were stopped by the addition of 3N sulfuric acid and the absorbance read on an ELISA reader at dual wavelengths 450 and 630 nm. […] The data is obtained as percent inhibition of specific binding [formula] and a plot of dose vs. percent inhibition of Rg binding is generated in which IC50 (μM) is calculated and reported as cell free data in Table 1.

[2] = system: platelet: HL-60 cell adhesion; assay: HL-60 Platelet Cell Adhesion Assay; assay type: cell-based; conditions: 0.5 h; thrombin-activated human platelets: HL-60 5:1, 30 minutes at room temperature; read-out: P-selectin HL-60 Platelets IC50
Protocol: HL-60 cells, obtained from American Type Culture Collection, were cultured in RPMI 1640 medium (GIBCO) supplemented with 20% fetal calf serum (Sigma) and 50 μg/ml gentamicin (GIBCO). Cells in log phase growth were harvested, washed and resuspended in Tyrodes buffer containing 5 mM HEPES and 0.2% bovine serum albumin and were fixed with 1% buffered formalin.
Blood from normal human donors was anticoagulated with citrate, layered over 1-Step Platelets (Accurate Chemical Co.) and centrifuged at 350 g for 20 minutes at room temperature. The platelet band was collected, diluted in 2 volumes of Tyrode's Buffer with 5 mM HEPES, 10 mM EDTA, and 0.2% BSA (pH 7.4) (THEB) and centrifuged at 600 g for 10 minutes. The platelet pellet was resuspended in THEB and incubated at room temperature for 1 hour. Calcein-acetoxy methylester (Calcein-Am, Molecular Probes) was added to the platelets at a final concentration of 10 μM and incubated for 10 minutes at 37° C. to label the platelets. Without washing, the platelets were counted on a Coulter counter model ZM, and the concentration was adjusted to 1×10^7 /ml. The platelets were activated with 2 U/ml of human thrombin for 10 minutes in Tyrode's containing 2 mM CaCl2, 5 mM HEPES, and 0.2% BSA (pH 7.4) (THB) at 37° C. and immediately fixed with 1% buffered formalin for 1 to 2 hours at room temperature. A small aliquot of labeled platelets was removed before activation and designated as non-activated.
Both platelets and HL-60 were washed in a ≥25 fold excess volume of Hanks Balanced Salt Solution (HBSS), resuspended in THB and counted. Cell concentrations were adjusted to 2×10^7 /ml for platelets and 4×10^6 /ml for HL-60, this ratio determined to be optimum for platelet: HL-60 cell adhesion. Compounds were incubated with 50 μl of platelets for 30 minutes at room temperature before addition of 50 μl of HL-60. This ratio of 5:1 platelets to HL-60 was incubated for 30 minutes at room temperature before addition of 0.2 ml of THB to increase the volume so the samples could be analyzed on a FACScan cytometer (Becton Dickinson). Non-activated platelets, and activated platelets with 10 mM EDTA were included as controls. Data were collected within a region set for the forward scatter channel corresponding to HL-60 size events.
The percent HL-60 cells which contained bound platelets was determined for each test condition. The inhibition of binding was determined by comparison to standards which were treated with vehicle alone (representing 0% inhibition) and standards whose specific binding had been blocked by the use of EDTA (representing 100% inhibition), by the following formula: [formula] where x=HL-60 cells containing bound platelets in the presence of the compound;
b=HL-60 cells containing bound platelets in the presence of EDTA;
a=HL-60 cells containing bound platelets in the presence of compound vehicle;
z=% inhibition of platelet: HL-60 cell adhesion

rats = assay: Reverse Passive Arthus Reaction in Rats (RPA); assay type: in vivo, male Sprague Dawley rats; conditions: single dose of 3 mg IV, rat, 4 hours after BSA
Excerpt: The reverse passive Arthus reaction in rats is a modification of the method by Mulligan et al., as described in J. Clin. Invest, (1991) 88: 1396-1406. This is an experimental model in which the interaction of antigen-antibodycomplexes and complement leads to a severe vasculitis that is associated with edema, induration, erythema and hemorrhage. The interaction between the antigen-antibody complexes and complement leads to a localized influx of neutrophils. These neutrophils release a variety of mediators that are associated with tissue damage and vascular permeability. The localized inflammatory reaction is measured using different techniques i.e., vascular permeability and neutrophil influx which is evaluated both biochemically and microscopically.
Male Sprague Dawley specific pathogen-free rats with jugular vein cannulae (280-320 g, Hill Top Labs, Pennsylvania) are used in these studies. Animals are acclimated for at least 1 day and individually housed in stainless steel cages. The dorsal region of the rats is closely clipped 2 days prior to the experiments and divided into 4 sites on each side of the midline. Prior to all injections the rats are sedated with 0.4 ml per 300 gm rat of ketamine/rompun [1000 mg (10 ml) of ketamine HCl is mixed with 40 mg (2.0 ml) Rompun] administered IP and or inhalation anesthesia with metafane (methoxyflurane).
Bovin Serum Albumin (BSA) and rabbit polyclonal IgG rich in anti-BSA are purchased from Sigma Chemical Co. (St. Louis, Mo.). Radiolabelled ^125 I-BSA (spAct 1-5 μCi/μg) is purchased from Dupont NEN (Boston, Mass.).
Each rat is administered intradermal (ID) injection of (0.4 mg, 0.6 mg and 0.8 mg) anti-BSA in a volume of 100 μl per injection in normal saline. The ID injections are randomized near the mid dorsal region on both sides of the back bone. Immediately after the ID injections of the anti-BSA, the rats are administered intravenous (IV) injections of BSA (10 mg in 1.0 ml) in normal saline containing ^125 I labeled BSA (1 μCi/ml BSA or 5.0 μCi/kg body/wt) for quantification of dermal valscular injury. Anti-inflammatory agents such as inhibitors of adhesion molecules of the present invention are administered IV at a single dose of 3 mg immediately after BSA. Four (4) hours after the IV injection of BSA, the rats are anesthetized with metafane and 2 to 3 ml of blood is withdrawn via the cannula into an anticoagulant containing (EDTA or Heparin) tube and plasma separated and saved for neutrophil and albumin quantitation. The rats are killed and the skin surrounding the injection site (15 mm diameter) is punched out and weighed. The skin sample and a fixed volume of plasma (0.1 to 1.0 ml) is analyzed in a gamma-counter for ^125 I content. Skin samples from the contralateral side are processed and analyzed for myeloperoxidase activity (MPO) as a measure of neutrophil accumulation. As needed, samples are also processed for histological evaluation of the reacted sites.
The calculation of the plasma protein exudation into skin is made by determining the radioactivity in the tissue and relating this to the level of radioactive albumin in the blood at the time of sacrifice. […] [formula]
Percent inhibition of the test compound at 3 mg was determined as follows: [formula] Myeloperoxidase (MPO)
MPO is located in the azurophil granules of polymorphonuclear leukocytes (PMN). Because of its abundance in these cells (5% dry weight), this enzyme is used as a marker for tissue neutrophil content. For tissue MPO content, the method of Bradley, et al., was used as described in J. Invest. Dermatol. (1982) 78: 206-209. Biopsies from each treatment group were placed in plastic tubes (15×100 mm) containing 10 ml of 0.5% hexadecyltrimethylammonium bromide (HTAB) in 0.05M potassium phosphate buffer pH 6.0. The tissue was then homogenized with a Brinkmann Polytron homogenizer (10s). […]

myeloid cell lines = conditions: cells grown in the presence of the substance; cited from earlier work
P-selectin [3] = molecular target: T1, P-selectin (Homo sapiens, UniProt P16109); conditions: literature; cited from earlier work
T1 sequence (P16109 42-830): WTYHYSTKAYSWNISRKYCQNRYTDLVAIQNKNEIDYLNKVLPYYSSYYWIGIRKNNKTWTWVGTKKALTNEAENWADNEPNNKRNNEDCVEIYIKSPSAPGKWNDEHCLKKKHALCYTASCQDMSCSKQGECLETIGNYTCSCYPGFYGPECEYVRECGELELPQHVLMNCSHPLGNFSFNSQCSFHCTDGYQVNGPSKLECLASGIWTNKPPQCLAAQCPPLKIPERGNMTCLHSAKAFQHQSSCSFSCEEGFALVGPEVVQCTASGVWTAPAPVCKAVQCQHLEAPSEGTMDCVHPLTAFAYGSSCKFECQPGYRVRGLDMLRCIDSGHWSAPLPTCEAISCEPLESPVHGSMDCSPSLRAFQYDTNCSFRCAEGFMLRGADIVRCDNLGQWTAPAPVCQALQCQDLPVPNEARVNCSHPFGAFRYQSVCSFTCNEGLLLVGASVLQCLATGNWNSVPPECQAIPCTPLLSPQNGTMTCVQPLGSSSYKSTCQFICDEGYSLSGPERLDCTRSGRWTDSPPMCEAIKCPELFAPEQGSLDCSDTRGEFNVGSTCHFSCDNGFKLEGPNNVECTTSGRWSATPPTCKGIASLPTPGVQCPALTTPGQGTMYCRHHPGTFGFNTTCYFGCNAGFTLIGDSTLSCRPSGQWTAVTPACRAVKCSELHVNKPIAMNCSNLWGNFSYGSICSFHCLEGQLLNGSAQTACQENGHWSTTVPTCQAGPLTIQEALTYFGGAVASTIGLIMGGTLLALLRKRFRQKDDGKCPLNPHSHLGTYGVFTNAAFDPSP

| Compound | IC50 (P-selectin [1]) [µM] | IC50 [2] [µM] | RPA MPO % Inhib. (myeloperoxidase) (rats) [%] | RPA VP % Inhib. (vascular permeability) (rats) [%] | inhibition of binding of P-selectin to myeloid cell lines (myeloid cell lines) | binding to P-selectin (P-selectin [3]) |
| --- | --- | --- | --- | --- | --- | --- |
| CCCCCCCCCCCCC/C=C/[C@@H](OC(=O)c1ccccc1)[C@H](CO[C@H]1O[C@H](CO)[C@H](O)[C@H](OC(=O)c2ccccc2)[C@H]1OCCCCC(C(=O)O)C(=O)O)NC(=O)CCCCCCCCCCCCCCC [Example 4, (2S,3R,4E)-3-Benzoyloxy-2-hexadecanoylamino-1-[2-O-(5,5-dicarboxypent-1-yl)-3-O-benzoyl-α-D-galactopyranosyloxy]-4-octadecene] | 7 | 19 | 84 | 60 | – | – |
| O=[Se](=O)(O)O [sodium selenate] | – | – | – | – | can be inhibited | – |
| CCCCCCCCCCCCC/C=C/[C@@H](OC(=O)c1ccccc1)[C@H](CO[C@H]1O[C@H](CO)[C@H](O)[C@H](OC(=O)c2ccccc2)[C@H]1OCCC(C(=O)O)C(=O)O)NC(=O)CCCCCCCCCCCCCCC [Example 2, (2S,3R,4E)-3-Benzoyloxy-2-hexadecanoylamino-1-[2-O-(3,3-di-carboxyprop-1-yl)-3-O-benzoyl-α-D-galactopyranosyloxy]-4-octadecene] | 8.2 | 12 | 96 | 41 | – | – |
| CC(=O)N[C@H]1C(O)O[C@H](CO)[C@@H](O[C@@H]2O[C@H](CO)[C@H](O)[C@H](O)[C@H]2O)[C@@H]1O[C@@H]1O[C@@H](C)[C@@H](O)[C@@H](O)[C@@H]1O (stereo partly shown) [Le^x] | – | – | – | – | – | shown to bind |
